From paper PMC5701137, “Discovery of novel choline acetyltransferase inhibitors using structure-based virtual screening” (Scientific Reports, 2017)
Where “and” joins values, the source holds several entries; their conditions need not be identical. Equal entries are not always repeated.

Target: T1, human rChAT (Homo sapiens, UniProt P28329)
T1 construct: made in house; host or cells: E. coli BL21 Rosetta2
T1 sequence (P28329 1-630 isoform P28329-3): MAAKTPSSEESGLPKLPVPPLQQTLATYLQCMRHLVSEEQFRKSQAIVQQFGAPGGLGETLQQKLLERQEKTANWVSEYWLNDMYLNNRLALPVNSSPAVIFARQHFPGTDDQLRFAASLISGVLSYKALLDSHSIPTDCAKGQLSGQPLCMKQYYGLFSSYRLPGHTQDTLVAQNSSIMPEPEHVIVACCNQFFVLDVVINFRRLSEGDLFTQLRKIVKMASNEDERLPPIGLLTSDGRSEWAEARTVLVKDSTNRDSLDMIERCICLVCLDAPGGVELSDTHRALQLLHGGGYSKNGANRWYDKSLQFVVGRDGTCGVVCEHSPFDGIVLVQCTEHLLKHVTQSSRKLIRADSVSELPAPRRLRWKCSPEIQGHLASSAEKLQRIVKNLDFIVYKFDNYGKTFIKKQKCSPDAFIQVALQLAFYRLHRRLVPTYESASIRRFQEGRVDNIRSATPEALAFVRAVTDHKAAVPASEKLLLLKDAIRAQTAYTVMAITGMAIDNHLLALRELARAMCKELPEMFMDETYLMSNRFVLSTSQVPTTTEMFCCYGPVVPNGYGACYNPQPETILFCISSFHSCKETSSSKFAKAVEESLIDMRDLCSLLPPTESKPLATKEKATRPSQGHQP
Test: In vitro ChAT activity inhibition fluorometric assay and kinetic studies
Type: biochemical
Conditions: for mode of inhibition of human rChAT: Lineweaver-Burk plot and nonlinear regression fit; for Vmax of rChAT: inhibitor 0.4 µM, mean ± SEM of two experiments; for Ki / IC50: mean of two experiments; for IC50: substrate concentrations 20 to 80 µM
Method: ChAT activity was measured using our newly developed fluorometric assay, using human recombinant ChAT (rChAT) protein. The reagents, choline chloride, acetyl coenzyme-A (ACoA, A2181) and 7-Diethylamino-3-(4-maleimidophenyl)-4-methylcoumarin (CPM) were purchased from Sigma-Aldrich (St. Louis, MO, USA).
The ChAT assay could be run in either 96-well or 384-well plates. For 96-well plates, 50 μL/well of 0.212 µg/ml (final concentration) of the recombinant ChAT was incubated with 100 μM different Asinex compounds (50 μL/well) for 10–30 minutes at room temperature in dilution buffer (10 mM Tris-HCl, pH 7.4, 150 mM NaCl, 1.0 mM EDTA, 0.05% (v/v) Triton X-100). Then, 50 µL of a cocktail-A [dilution buffer containing choline chloride (final concentration 150 µM), ACoA (final concentration 13.3 µM) and CPM (final concentration 15 µM)] was added to each well. Immediately after adding the cocktail-A, the changes in fluorescence was monitored kinetically at 479 nm after exciting at 390 nm at 1–2 minute intervals for 15–20 minutes using a microplate spectrophotometer reader (Infinite M1000, Tecan).
Each Asinex compounds were run in triplicates. On each 96-wells plate, several enzyme wells without inhibitor were also included during measurements as control and for estimating the inhibition level. Negative controls were wells without enzyme. The percentage inhibition for each Asinex compound was calculated based on the enzyme control value as a reference (100% activity). The compounds showing over 50% inhibition of enzyme activity were selected for further kinetic studies.
For kinetic studies, a similar protocol as inhibition assay was followed; a dilution series of five different concentrations ranging from 10^−6 to 10^−9 M were prepared for each selected Asinex compounds. For ChAT, the A-CoA was kept constant at 10 μM (final) but the concentration of choline chloride varied between 320–10 μM. For BuChE, BTC was used as the substrate in the concentrations ranging from 0.0625 to 2 mM. For AChE, ATC was used as the substrate in the concentrations ranging from 0.0312 to 1 mM. Each compound concentration was measured in duplicates. The rate of enzyme activity (as ∆OD/hr kinetic data) was calculated and processed using the GraphPad Prism 7 analysis software. The inhibitory constant (Ki) values were determined from the dose-response curve and the half-maximal inhibitory concentration (IC50) values were calculated by plotting the percentage enzyme activity vs. the log of the Asinex compound concentrations and fitting the data using the nonlinear regression Enzyme Kinetics-Inhibition function.
The Michaelis-Menten constant (Km) and maximal velocity (Vmax) values were calculated from substrate-velocity curve after fitting the data with non-linear regression Michaelis-Menten kinetic function. The Km and Vmax values were further used to plot the Lineweaver-Burk plots; the plots were fitted using linear regression function.

Row | Structure (SMILES) | mode of inhibition of human rChAT | Vmax of rChAT [µM/min] | Ki | IC50 | inhibition at 100 µM (100 µM compound, compared to control, mean of three experiments in triplicate, read-out: ChAT % IR (inhibition rate)) [%]
1 | CC(C)NC(=O)C1CCN(C(=O)c2csc(Nc3cccc4ccccc34)n2)CC1 [Compound B4] | mixed-model type inhibition | 239.0 ± 21.4 | 11.9 µM | ~16.5 µM and 16.5 µM | 
2 | CC(C)c1ccc(C(=O)CSc2n[nH]c(-c3ccco3)n2)cc1 [Compound E1] | mixed-model inhibition | 276.1 ± 12.1 | ~15.2 µM and 15.2 µM | ~25.4 µM and 25.4 µM | > 50
